Like-named read-outs stand apart in the source and are kept apart here.

Data set [1] deals with T1, hCB1 (Homo sapiens, UniProt P21554). The experiment in a line: cell-based.
The conditions of data set [2]: mouse, 0.3 mg/kg PO.
The conditions of data set [3]: rat, 1 mg/kg PO.
For data set [4], the target named is T1, hCB1. The following applies: calcium assay, basal signaling.
The subject of data set [5] is alcohol-induced liver steatosis. The experiment in a line: Alcohol induced hepatic steatosis study. Type of data set: in vivo, mouse. The following applies: female C57BL6 mice on ethanol diet; 0.03, 0.1, 0.3 mg/kg once daily oral gavage, last 2 weeks; effect at the two higher doses; p < 0.05 versus ethanol + vehicle.
For data set [6], the system named is SafetyScreen44 Panel targets.
Data set [7] deals with T1, hCB1. The following applies: ratio Ki hCB2/Ki hCB1.

T1 sequence (P21554 whole entry): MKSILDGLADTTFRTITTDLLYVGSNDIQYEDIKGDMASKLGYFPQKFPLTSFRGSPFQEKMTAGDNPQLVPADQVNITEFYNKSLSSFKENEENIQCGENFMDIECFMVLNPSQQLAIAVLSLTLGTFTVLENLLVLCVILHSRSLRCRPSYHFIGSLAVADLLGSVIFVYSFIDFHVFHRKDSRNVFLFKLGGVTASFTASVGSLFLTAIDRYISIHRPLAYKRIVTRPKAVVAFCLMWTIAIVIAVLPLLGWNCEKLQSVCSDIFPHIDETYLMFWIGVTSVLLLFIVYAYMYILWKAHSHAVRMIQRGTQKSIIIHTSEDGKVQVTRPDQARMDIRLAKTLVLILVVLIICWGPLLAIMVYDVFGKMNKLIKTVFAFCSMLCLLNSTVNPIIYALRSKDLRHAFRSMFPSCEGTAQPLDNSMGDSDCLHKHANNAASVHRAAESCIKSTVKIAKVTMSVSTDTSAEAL

`CCCN(CC(F)(F)F)C(=O)NC1CCN(c2ncnc3c2nc(-c2ccccc2Cl)n3-c2ccc(Cl)cc2)CC1` [Compound 12, 1-{1-[8-(2-Chlorophenyl)-9-(4-chlorophenyl)-9H-purin-6-yl]-piperidin-4-yl}-3-propyl-3-(2,2,2-trifluoroethyl)urea]: the Kb in data set [1] was 1.2 ± 0.6 nM. Still for that read-out and setting: with `CC(C)(C)CNC(=O)NC1CCN(c2ncnc3c2nc(-c2ccccc2Cl)n3-c2ccc(Cl)cc2)CC1` [Compound 14, 1-{1-[8-(2-Chlorophenyl)-9-(4-chlorophenyl)-9H-purin-6-yl]-piperidin-4-yl}-3-(2,2-dimethylpropyl)urea] the figure was 270 ± 130 nM. Same read-out and setting: with `O=C(NC1CCN(c2ncnc3c2nc(-c2ccccc2Cl)n3-c2ccc(Cl)cc2)CC1)N1CCCC1` [Compound 16, N-{1-[8-(2-Chlorophenyl)-9-(4-chlorophenyl)-9H-purin-6-yl]-piperidin-4-yl}pyrrolidine-1-carboxamide] the figure was 190 ± 110 nM; with `O=C(NC1CCN(c2ncnc3c2nc(-c2ccccc2Cl)n3-c2ccc(Cl)cc2)CC1)N1CCCCC1` [Compound 17, N-{1-[8-(2-Chlorophenyl)-9-(4-chlorophenyl)-9H-purin-6-yl]-piperidin-4-yl}piperidine-1-carboxamide], 7 ± 4 nM; with `O=C(NC1CCN(c2ncnc3c2nc(-c2ccccc2Cl)n3-c2ccc(Cl)cc2)CC1)N1CCOCC1` [Compound 18, N-{1-[8-(2-Chlorophenyl)-9-(4-chlorophenyl)-9H-purin-6-yl]-piperidin-4-yl}morpholine-4-carboxamide], 340 ± 60 nM. Same read-out and setting: with `O=C(NC1CCN(c2ncnc3c2nc(-c2ccccc2Cl)n3-c2ccc(Cl)cc2)CC1)NC1(C(F)(F)F)CCCC1` [Compound 20, 1-{1-[8-(2-Chlorophenyl)-9-(4-chlorophenyl)-9H-purin-6-yl]-piperidin-4-yl}-3-[1-(trifluoromethyl)cyclopentyl]urea] the figure was 12 ± 8 nM; with `O=C(NC1CCCCC1)NC1CCN(c2ncnc3c2nc(-c2ccccc2Cl)n3-c2ccc(Cl)cc2)CC1` [Compound 21, 3-{1-[8-(2-Chlorophenyl)-9-(4-chlorophenyl)-9H-purin-6-yl]-piperidin-4-yl}-1-cyclohexylurea], 35 ± 10 nM. In data set [1], `CC1(NC(=O)NC2CCN(c3ncnc4c3nc(-c3ccccc3Cl)n4-c3ccc(Cl)cc3)CC2)CCC(F)(F)CC1` [Compound 23, 3-{1-[8-(2-Chlorophenyl)-9-(4-chlorophenyl)-9H-purin-6-yl]-piperidin-4-yl}-1-(4,4-difluoro-1-methylcyclohexyl)urea] yielded a Kb of 0.4 ± 0.3 nM. On the same count and under the same terms, with `O=C(NCC1CCCCC1)NC1CCN(c2ncnc3c2nc(-c2ccccc2Cl)n3-c2ccc(Cl)cc2)CC1` [Compound 25, 3-{1-[8-(2-Chlorophenyl)-9-(4-chlorophenyl)-9H-purin-6-yl]-piperidin-4-yl}-1-(cyclohexylmethyl)urea] the figure was 5 ± 3 nM; with `O=C(NCC1CCC(F)(F)CC1)NC1CCN(c2ncnc3c2nc(-c2ccccc2Cl)n3-c2ccc(Cl)cc2)CC1` [Compound 26, 3-{1-[8-(2-Chlorophenyl)-9-(4-chlorophenyl)-9H-purin-6-yl]-piperidin-4-yl}-1-[(4,4-difluorocyclohexyl)methyl]urea], 28 ± 15 nM. On the same count and under the same terms, with `CN1CCC(CNC(=O)NC2CCN(c3ncnc4c3nc(-c3ccccc3Cl)n4-c3ccc(Cl)cc3)CC2)CC1` [Compound 27, 3-{1-[8-(2-Chlorophenyl)-9-(4-chlorophenyl)-9H-purin-6-yl]-piperidin-4-yl}-1-[(1-methylpiperidin-4-yl)methyl]urea] the figure was 25000 ± 12000 nM; with `O=C(Nc1ccccn1)NC1CCN(c2ncnc3c2nc(-c2ccccc2Cl)n3-c2ccc(Cl)cc2)CC1` [Compound 31, 3-{1-[8-(2-Chlorophenyl)-9-(4-chlorophenyl)-9H-purin-6-yl]-piperidin-4-yl}-1-(pyridin-2-yl)urea], 150 ± 50 nM. For the compound `O=C(Nc1ccc(F)cc1F)NC1CCN(c2ncnc3c2nc(-c2ccccc2Cl)n3-c2ccc(Cl)cc2)CC1` [Compound 33, 3-{1-[8-(2-Chlorophenyl)-9-(4-chlorophenyl)-9H-purin-6-yl]-piperidin-4-yl}-1-(2,4-difluorophenyl)urea], in data set [2], the “plasma HL” value worked out at 12 h and the “time of plasma max. conc.” value turned out to be 1 h. In addition, the “plasma HL” value in data set [3] amounted to 12 h. Also, the “neutral antagonist or inverse agonist of hCB1” value in data set [4] is “inverse agonists”. As to `O=C(Nc1ccc(F)c(F)c1)NC1CCN(c2ncnc3c2nc(-c2ccccc2Cl)n3-c2ccc(Cl)cc2)CC1` [Compound 34, 3-{1-[8-(2-Chlorophenyl)-9-(4-chlorophenyl)-9H-purin-6-yl]-piperidin-4-yl}-1-(3,4-difluorophenyl)urea], the Kb in data set [1] was determined as 290 ± 80 nM. On the same count and under the same terms, with `O=C(Nc1cccnc1C(F)(F)F)NC1CCN(c2ncnc3c2nc(-c2ccccc2Cl)n3-c2ccc(Cl)cc2)CC1` [Compound 36, 3-{1-[8-(2-Chlorophenyl)-9-(4-chlorophenyl)-9H-purin-6-yl]-piperidin-4-yl}-1-[2-(trifluoromethyl)pyridin-3-yl]urea] the figure was 160 ± 60 nM. With `O=C(Nc1ccc(OC(F)F)nc1)NC1CCN(c2ncnc3c2nc(-c2ccccc2Cl)n3-c2ccc(Cl)cc2)CC1` [Compound 38, 3-{1-[8-(2-Chlorophenyl)-9-(4-chlorophenyl)-9H-purin-6-yl]-piperidin-4-yl}-1-[6-(difluoromethoxy)pyridin-3-yl]urea], the “plasma HL” value in data set [2] was found to be 11 h. Moreover, in data set [4], the “neutral antagonist or inverse agonist of hCB1” value was “inverse agonists”. Besides, in data set [5], the “hepatic lipid droplets (Oil Red O staining, ImageJ quantification)” value is “statistically significant reduction of liver steatosis”. The “EC50 or IC50 on all targets tested” value in data set [6] is over 10000 nM. In turn, `O=C(Nc1cc(C(F)(F)F)[nH]n1)NC1CCN(c2ncnc3c2nc(-c2ccccc2Cl)n3-c2ccc(Cl)cc2)CC1` [Compound 39, 1-{1-[8-(2-Chlorophenyl)-9-(4-chlorophenyl)-9H-purin-6-yl]-piperidin-4-yl}-3-[5-(trifluoromethyl)-1H-pyrazol-3-yl]urea] displayed a Kb in data set [1] of 270 ± 60 nM. Still for that read-out and setting: with `Cn1cc(NC(=O)NC2CCN(c3ncnc4c3nc(-c3ccccc3Cl)n4-c3ccc(Cl)cc3)CC2)cn1` [Compound 40, 1-{1-[8-(2-Chlorophenyl)-9-(4-chlorophenyl)-9H-purin-6-yl]-piperidin-4-yl}-3-(1-methyl-1H-pyrazol-4-yl)urea] the figure was 28000 ± 8000 nM; with `O=C(NCC1CCCCC1)NC1CCN(c2ncnc3c2nc(-c2ccccc2Cl)n3-c2ccc(C(F)(F)F)nc2)CC1` [Compound 42, 3-{1-[8-(2-Chlorophenyl)-9-[6-(trifluoromethyl)pyridin-3-yl]-9H-purin-6-yl]piperidin-4-yl}-1-(cyclohexylmethyl)urea], 76 ± 34 nM; with `O=C(Nc1ccccc1F)NC1CCN(c2ncnc3c2nc(-c2ccccc2Cl)n3-c2ccc(F)cc2)CC1` [Compound 44, 3-{1-[8-(2-Chlorophenyl)-9-(4-fluorophenyl)-9H-purin-6-yl]-piperidin-4-yl}-1-(2-fluorophenyl)urea], 3800 ± 1500 nM. As to `CC1(NC(=O)NC2CCCCC2)CCN(c2ncnc3c2nc(-c2ccccc2Cl)n3-c2ccc(Cl)cc2)CC1` [Compound 47, 3-{1-[8-(2-Chlorophenyl)-9-(4-chlorophenyl)-9H-purin-6-yl]-4-methylpiperidin-4-yl}-1-cyclohexylurea], in data set [1], the Kb amounted to 7 ± 5 nM. Moreover, the “Selectivity Ki CB2/CB1” value in data set [7] was over 769. Compound `CC1(NC(=O)NC2CCC(F)(F)CC2)CCN(c2ncnc3c2nc(-c2ccccc2Cl)n3-c2ccc(Cl)cc2)CC1` [Compound 48, 3-{1-[8-(2-Chlorophenyl)-9-(4-chlorophenyl)-9H-purin-6-yl]-4-methylpiperidin-4-yl}-1-(4,4-difluorocyclohexyl)urea] yielded a Kb in data set [1] of 2 ± 1 nM. Still for that read-out and setting: with `CC1(NC(=O)NCc2ccccc2F)CCN(c2ncnc3c2nc(-c2ccccc2Cl)n3-c2ccc(Cl)cc2)CC1` [Compound 49, 3-{1-[8-(2-Chlorophenyl)-9-(4-chlorophenyl)-9H-purin-6-yl]-4-methylpiperidin-4-yl}-1-[(2-fluorophenyl)methyl]urea] the figure was 14 ± 7 nM. As to `CC1(NC(=O)Nc2ccccc2F)CCN(c2ncnc3c2nc(-c2ccccc2Cl)n3-c2ccc(Cl)cc2)CC1` [Compound 50, 3-{1-[8-(2-Chlorophenyl)-9-(4-chlorophenyl)-9H-purin-6-yl]-4-methylpiperidin-4-yl}-1-(2-fluorophenyl)urea], the Kb in data set [1] was 1.6 ± 1.1 nM. Same read-out and setting: with `CC1(NC(=O)Nc2ccc(F)cc2F)CCN(c2ncnc3c2nc(-c2ccccc2Cl)n3-c2ccc(Cl)cc2)CC1` [Compound 51, 3-{1-[8-(2-Chlorophenyl)-9-(4-chlorophenyl)-9H-purin-6-yl]-4-methylpiperidin-4-yl}-1-(2,4-difluorophenyl)urea] the figure was 9 ± 4 nM; with `CC1(NC(=O)Nc2ccc(OC(F)F)nc2)CCN(c2ncnc3c2nc(-c2ccccc2Cl)n3-c2ccc(Cl)cc2)CC1` [Compound 52, 3-{1-[8-(2-Chlorophenyl)-9-(4-chlorophenyl)-9H-purin-6-yl]-4-methylpiperidin-4-yl}-1-[6-(difluoromethoxy)pyridin-3-yl]urea], 46 ± 23 nM; with `CC1(NS(=O)(=O)NC2CCCCC2)CCN(c2ncnc3c2nc(-c2ccccc2Cl)n3-c2ccc(Cl)cc2)CC1` [Compound 54, N-Cyclohexyl({1-[8-(2-chlorophenyl)-9-(4-chlorophenyl)-9H-purin-6-yl]-4-methylpiperidin-4-yl}amino)sulfonamide], 17 ± 3 nM.

The values above are taken from PMC7656562 (Journal of medicinal chemistry, 2019).
